Measured values taken from US11285130B2, “Treatment of mitochondrial diseases” (Khondrion IP B.V., priority 2017, dated 2022).
pEC50: −log10 of the molar value. Like-named read-outs stand apart in the source and are kept apart here.

How the values were obtained:
CYP3A4 = CYP3A4 (Homo sapiens, UniProt P08684); experiment: In vitro metabolism; assay type: in vitro ADME
[1] = male, human, in vivo, 28 days
[2] = male, human, in vivo
Procedure: The changes from baseline (pre-dose assessment on Day 1) for body weight, physical examinations, vital signs, ECG-variables and clinical laboratory variables were determined for each time point. Treatment-emergent laboratory and ECG abnormalities as well as adverse events were monitored throughout the study, up to 28 Days after the last study drug intake.
The goal of this post-hoc optimization study was to repeat the ECG assessment with an highly automated computer-assisted approach where in addition to the re-evaluation of standard intervals (PR, QRS and QT intervals), a set of parameters describing repolarization morphology were considered. The morphology indices were the TpTe interval (interval from the T wave apex to the end of the T wave), the TpTe/QT index (the ratio between the TpTe interval and the QT interval), Tamp (the amplitude in microvolt units of the T wave) and TSym (an index of repolarization morphology based on the symmetry of the T wave).
ECGs were digitally recorded using a Schiller AT104 ECG machine (500 Hz, 1 μV). Cardiac interval measurements were performed on the Global Superimposed Median Beat (GSMB), a methodology that allows measurements that consider each of the 12 individual median beats. This measurement methodology ensures that the PR, QRS, and QT interval are measured from the earliest onset in any lead to the latest deflection in any lead. Cardiologist overview of the computer-based measurements is based on the superimposed (overlapped) display of the individual median beats, to assure measurements are performed at the earliest onset of any viable lead to the latest offset of any viable lead.
The RR interval used for heart-rate correction of the QT interval (QTcB) was based on all the beats in the ten second recording. […]
For the pre-dose (baseline) ECGs, all parameters per time point were calculated as the averages of the triplicate ECGs. […]
The over-reading cardiologist provided a clinical interpretation for each ECG at each time point. […]

[3] = tested on: primary human fibroblasts from patients with Leigh syndrome; experiment: Oxidative stress-induced cell death (BSO) assay, Leigh patient fibroblasts; assay type: cell-based; settings: Homo sapiens, in vitro fibroblast assays (Redox assay), fibroblast type not given, values match Leigh
From the text: (§1) To determine the effective concentration of the compounds (the concentrations that protect patient cells against oxidative stress-induced cell death) the applicant established an assay using stressed primary human fibroblasts from patients with Leigh syndrome, MELAS or LHON diseases. Utilising the inherent oxidative stress of fibroblasts from patients with mitochondrial disease, their oxidative burden was further increased by depleting cellular glutathione with an inhibitor of glutathione synthesis, L-buthionine-(S,R)-sulfoximine (BSO). […] Cells were seeded at a density of 3000 cells/well in a 96-well format and incubated with increasing concentrations of compounds in combination with BSO (100 μM, Sigma-aldrich). One day after treatment, the cells were washed twice and stained with a solution of 5 μM calcein-AM (Life technologies C3100MP) during 25 min in 199 medium without phenol red (Life technologies, 11043-023) at room temperature. After 2 washes with PBS (Phosphate buffered saline) the plate was read on a fluorescence plate reader (Fluostar Omega, BMG labtech) and the percentage of cell viability determined as a function of fluorescence intensity.

[4] = tested on: primary human fibroblasts from patients with LHON; experiment: Oxidative stress-induced cell death (BSO) assay, LHON patient fibroblasts; assay type: cell-based; settings: Homo sapiens, Fibroblast; fibroblasts derived from LHON patients, 100 μM BSO; read-out: EC50, protection from oxidative stress-induced cell death
From the text: as §1

[5] = Phospholipidosis assessment in MAD study (urinary di-22:6-BMP, electron microscopy of peripheral leucocytes)
Procedure: Therefore, the presence of phospholipidosis was determined by the concentration of di-docosahexaenoyl (22:6)-bis(monoacylglycerol) phosphate (di-22:6-BMP) in a midstream urine sample and by electron microscopy of peripheral leucocytes at Day 1 and 7 in the MAD study (Pospischil A. et al, Exp. Toxicol Pathol 2010, 62:567-571).

Protein binding = assay type: in vitro ADME

CYP3A4, sequence (P08684 whole entry): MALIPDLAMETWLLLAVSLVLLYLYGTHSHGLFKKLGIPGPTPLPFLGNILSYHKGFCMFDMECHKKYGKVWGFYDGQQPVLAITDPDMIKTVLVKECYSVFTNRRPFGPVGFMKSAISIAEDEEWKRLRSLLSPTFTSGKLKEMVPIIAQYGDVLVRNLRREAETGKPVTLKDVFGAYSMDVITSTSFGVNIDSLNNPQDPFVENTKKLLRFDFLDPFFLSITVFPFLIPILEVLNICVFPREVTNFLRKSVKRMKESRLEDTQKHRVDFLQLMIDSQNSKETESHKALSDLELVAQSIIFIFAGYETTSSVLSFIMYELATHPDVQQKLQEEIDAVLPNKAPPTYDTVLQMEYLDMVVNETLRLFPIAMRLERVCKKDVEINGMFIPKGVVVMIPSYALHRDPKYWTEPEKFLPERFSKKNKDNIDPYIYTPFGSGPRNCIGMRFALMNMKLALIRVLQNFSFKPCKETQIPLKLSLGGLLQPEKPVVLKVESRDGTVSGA

For `Cc1c(C)c2c(c(C)c1O)CC[C@@](C)(C(=O)N[C@@H]1CCCNC1)O2.Cl` [KH176, (S)-6-hydroxy-2,5,7,8-tetramethyl-N-((R)-piperidin-3-yl)chroman-2-carboxamide hydrochloride], the metabolism (CYP3A4) was “metabolized by CYP3A4”, the “AEs rated mild in severity” value [1] was 35 and the “AEs reported by subjects in the highest dose group” value [1] was 28. The “moderate AEs” value [1] was 6, the “severe AEs” value [1] was 2 and the “subjects reporting AEs” value [1] was 14 subjects. For the same molecule, the “total adverse events (AEs) reported” value [1] was 43, the “KH176 exposure with no significant prolongation of the TpTe interval compared to placebo” value [2] was “lower than 500 ng/ml” and the “plasma concentrations at which effects on repolarization seem to start” value [2] was 500 to 1000 ng/mL. The “QTcF, largest median baseline increase” value ([2]; 1 h) was 46.8 ms, the pEC50 ([3]; read-out: EC50) was 6.74 and the EC50 ([3]; read-out: EC50 expressed) was about 0.06 µg/mL. For the same molecule, the pEC50 [4] was 7.31, the “di-22:6-BMP in urine, change from Day 1 to Day 7” value (“di-22:6-BMP in urine, change” for short) ([5]; MAD group III (100 mg BID)) was 0.74-2.50 ng/mg creatinine and the “di-22:6-BMP in urine, change” value ([5]; MAD group IV (200 mg BID)) was −1.44-1.32 ng/mg creatinine. The “di-22:6-BMP in urine, change” value ([5]; MAD group V (400 mg BID)) was −0.69-1.46 ng/mg creatinine, the “prevalence of phospholipidosis in granulocytes or monocytes by electron microscopy” value ([5]; in vivo) was “No increased prevalence” and the fraction unbound (Protein binding) was 0.4 to 0.5.
